For data set [1], the target named is T1, human recombinant GIP receptor (Homo sapiens, UniProt P48546).
T1 construct: expressed in transfected cells; host or cells: CHO-K1 clonal cells (membranes)
T1 sequence (P48546 22-466): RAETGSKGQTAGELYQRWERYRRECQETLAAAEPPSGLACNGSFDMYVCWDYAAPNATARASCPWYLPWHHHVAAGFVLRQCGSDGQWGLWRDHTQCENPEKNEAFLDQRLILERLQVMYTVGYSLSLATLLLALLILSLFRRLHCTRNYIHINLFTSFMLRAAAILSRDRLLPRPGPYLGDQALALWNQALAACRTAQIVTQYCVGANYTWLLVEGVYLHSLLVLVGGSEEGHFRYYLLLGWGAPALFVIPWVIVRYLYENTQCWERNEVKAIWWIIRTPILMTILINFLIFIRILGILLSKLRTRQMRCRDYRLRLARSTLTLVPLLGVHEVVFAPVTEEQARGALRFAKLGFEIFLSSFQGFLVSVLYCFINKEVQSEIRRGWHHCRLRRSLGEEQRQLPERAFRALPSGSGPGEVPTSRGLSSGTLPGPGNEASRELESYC
The data set can be described thus: In vitro hGIP receptor binding assay ([125I]GIP displacement, CHO-K1 membranes). The text has this:
A. In Vitro hGIP Receptor Binding Assay

Data set [2] is described as follows: Human plasma half-life assay. It counts as in vitro ADME. As to conditions: human plasma, 37° C., LC-MS; read-out: Human Plasma T½ (converted).
Data set [3] can be described thus: Rat plasma half-life assay. The format is in vitro ADME. As to conditions: rat plasma, 37° C., LC-MS; read-out: Rat Plasma T½ (converted).

Where a SMILES comes first, the peptide text is derived from it. Where no end group is shown, it is not given here. [ ]: non-standard residue; d: D form. Ac6c = NC1(C(=O)O)CCCCC1; Ac5c = NC1(C(=O)O)CCCC1; Aib = CC(C)(N)C(=O)O Some results are limits rather than exact numbers.

`CC[C@H](C)[C@H](NC(=O)[C@H](CCCCN)NC(=O)[C@H](CC(=O)O)NC(=O)C1(NC(=O)[C@H](C)NC(=O)[C@@H](NC(=O)C(C)(C)NC(=O)[C@H](Cc2ccc(O)cc2)NC(=O)[C@H](CC(=O)O)NC(=O)[C@H](CO)NC(=O)[C@@H](NC(=O)[C@H](Cc2ccccc2)NC(=O)[C@@H](NC(=O)CNC(=O)[C@H](CCC(=O)O)NC(=O)C(C)(C)NC(=O)[C@@H](N)Cc2ccc(O)cc2)[C@@H](C)O)[C@@H](C)CC)[C@@H](C)CC)CCCCC1)C(=O)N[C@@H](Cc1c[nH]cn1)C(=O)N[C@@H](CCC(N)=O)C(=O)N[C@@H](CCC(N)=O)C(=O)N[C@@H](CC(=O)O)C(=O)N[C@@H](Cc1ccccc1)C(=O)N[C@H](C(=O)N[C@@H](CC(N)=O)C(=O)N[C@@H](Cc1c[nH]c2ccccc12)C(=O)N[C@@H](CC(C)C)C(=O)N[C@@H](CC(C)C)C(=O)N[C@@H](C)C(=O)N[C@@H](CCC(N)=O)C(=O)N[C@@H](CCCCN)C(N)=O)C(C)C` [Example 38, (Aib^2, 11, A6c^14)hGIP(1-30)-NH2] (H-Y[Aib]EGTFISDY[Aib]IA[Ac6c]DKIHQQDFVNWLLAQK-NH2; N-terminus assumed): in data set [1], the Ki was 0.73 nM. Also, the half-life at 0.1 mg/ml was 49.1 h in data set [2] and greater than 54 h in data set [3].

On to `CC[C@H](C)[C@H](NC(=O)[C@H](CO)NC(=O)[C@H](Cc1ccc(O)cc1)NC(=O)[C@H](CC(=O)O)NC(=O)C(C)(C)NC(=O)[C@@H](NC(=O)[C@H](Cc1ccccc1)NC(=O)[C@@H](NC(=O)CNC(=O)[C@H](CCC(=O)O)NC(=O)C(C)(C)NC(=O)[C@@H](N)Cc1ccc(O)cc1)[C@@H](C)O)[C@@H](C)CC)C(=O)N[C@@H](C)C(=O)N[C@@H](CCSC)C(=O)N[C@@H](CC(=O)O)C(=O)N[C@@H](CCCCN)C(=O)N[C@H](C(=O)N[C@@H](Cc1c[nH]cn1)C(=O)N[C@@H](CCC(N)=O)C(=O)N[C@@H](CCC(N)=O)C(=O)N[C@@H](CC(=O)O)C(=O)N[C@@H](Cc1ccccc1)C(=O)N[C@H](C(=O)N[C@@H](CC(N)=O)C(=O)N[C@@H](Cc1c[nH]c2ccccc12)C(=O)N[C@@H](CC(C)C)C(=O)N[C@@H](CC(C)C)C(=O)N[C@@H](C)C(=O)N[C@@H](CCC(N)=O)C(=O)N[C@@H](CCCCN)C(N)=O)C(C)C)[C@@H](C)CC` [Example 17, (Aib^2, 8)hGIP(1-30)-NH2] (H-Y[Aib]EGTFI[Aib]DYSIAMDKIHQQDFVNWLLAQK-NH2; N-terminus assumed), for which the Ki in data set [1] was 15.9 nM. Also, the half-life at 0.1 mg/ml is 17.4 h in data set [2] and 55 h in data set [3].

In the case of `CC[C@H](C)[C@H](NC(=O)[C@H](CCCCN)NC(=O)[C@H](CC(=O)O)NC(=O)[C@H](CCSC)NC(=O)C(C)(C)NC(=O)[C@@H](NC(=O)[C@H](CO)NC(=O)[C@H](Cc1ccc(O)cc1)NC(=O)[C@H](CC(=O)O)NC(=O)[C@H](CO)NC(=O)[C@@H](NC(=O)[C@H](Cc1ccccc1)NC(=O)[C@@H](NC(=O)CNC(=O)[C@H](CCC(=O)O)NC(=O)C(C)(C)NC(=O)[C@@H](N)Cc1ccc(O)cc1)[C@@H](C)O)[C@@H](C)CC)[C@@H](C)CC)C(=O)N[C@@H](Cc1c[nH]cn1)C(=O)N[C@@H](CCC(N)=O)C(=O)N[C@@H](CCC(N)=O)C(=O)N[C@@H](CC(=O)O)C(=O)N[C@@H](Cc1ccccc1)C(=O)N[C@H](C(=O)N[C@@H](CC(N)=O)C(=O)N[C@@H](Cc1c[nH]c2ccccc12)C(=O)N[C@@H](CC(C)C)C(=O)N[C@@H](CC(C)C)C(=O)N[C@@H](C)C(=O)N[C@@H](CCC(N)=O)C(=O)N[C@@H](CCCCN)C(=O)NCC(=O)N[C@@H](CCCCN)C(=O)N[C@@H](CCCCN)C(=O)N[C@@H](CC(N)=O)C(=O)N[C@@H](CC(=O)O)C(=O)N[C@@H](Cc1c[nH]c2ccccc12)C(=O)N[C@@H](CCCCN)C(=O)N[C@@H](Cc1c[nH]cn1)C(=O)N[C@@H](CC(N)=O)C(=O)N[C@H](C(=O)N[C@H](C(=O)N[C@@H](CCC(N)=O)C(=O)O)[C@@H](C)O)[C@@H](C)CC)C(C)C` [Example 60, (Aib^2, 13)hGIP(1-42)-OH], in data set [1], the inhibition constant Ki was 0.05 nM. Moreover, the values for the half-life at 0.1 mg/ml in data set [2] and in data set [3] were 26 h and 10.5 h, respectively.

Consider “Y[Aib]EGTFISDY[Aib]IA[Ac6c]DKIHQQDFVNWLLAQKGKKNDWKHNITQ-OH [Example 41, (Aib^2, 11, A6c^14)hGIP(1-42)-OH]”, for which the Ki in data set [1] was determined as 0.73 nM. Further, the half-life at 0.1 mg/ml in data set [2] is 15.9 h; in data set [3], 13.3 h.

Turning to `CCCC[C@H](NC(=O)C(C)(C)NC(=O)[C@@H](NC(=O)[C@H](CO)NC(=O)[C@H](Cc1ccc(O)cc1)NC(=O)[C@H](CC(=O)O)NC(=O)[C@H](CO)NC(=O)[C@@H](NC(=O)[C@H](Cc1ccccc1)NC(=O)[C@@H](NC(=O)CNC(=O)[C@H](CCC(=O)O)NC(=O)C(C)(C)NC(=O)[C@@H](N)Cc1ccc(O)cc1)[C@@H](C)O)[C@@H](C)CC)[C@@H](C)CC)C(=O)N[C@@H](CC(=O)O)C(=O)N[C@@H](CCCCN)C(=O)N[C@H](C(=O)N[C@@H](Cc1c[nH]cn1)C(=O)N[C@@H](CCC(N)=O)C(=O)N[C@@H](CCC(N)=O)C(=O)N[C@@H](CC(=O)O)C(=O)N[C@@H](Cc1ccccc1)C(=O)N[C@H](C(=O)N[C@@H](CC(N)=O)C(=O)N[C@@H](Cc1c[nH]c2ccccc12)C(=O)N[C@@H](CC(C)C)C(=O)N[C@@H](CC(C)C)C(=O)N[C@@H](C)C(=O)N[C@@H](CCC(N)=O)C(=O)N[C@@H](CCCCN)C(=O)NCC(=O)N[C@@H](CCCCN)C(=O)N[C@@H](CCCCN)C(=O)N[C@@H](CC(N)=O)C(=O)N[C@@H](CC(=O)O)C(=O)N[C@@H](Cc1c[nH]c2ccccc12)C(=O)N[C@@H](CCCCN)C(=O)N[C@@H](Cc1c[nH]cn1)C(=O)N[C@@H](CC(N)=O)C(=O)N[C@H](C(=O)N[C@H](C(=O)N[C@@H](CCC(N)=O)C(=O)O)[C@@H](C)O)[C@@H](C)CC)C(C)C)[C@@H](C)CC` [Example 57, (Aib^2, 13, Nle^14)hGIP(1-42)-OH], in data set [1], the inhibitory constant (Ki) turned out to be 0.05 nM. The half-life at 0.1 mg/ml was 30.5 h in data set [2] and 13.8 h in data set [3].

On to `CC[C@H](C)[C@H](NC(=O)[C@H](CCCCN)NC(=O)[C@H](CC(=O)O)NC(=O)[C@H](CCSC)NC(=O)[C@H](C)NC(=O)[C@@H](NC(=O)C1(NC(=O)[C@H](Cc2ccc(O)cc2)NC(=O)[C@H](CC(=O)O)NC(=O)[C@H](CO)NC(=O)[C@@H](NC(=O)[C@H](Cc2ccccc2)NC(=O)[C@@H](NC(=O)CNC(=O)[C@H](CCC(=O)O)NC(=O)C(C)(C)NC(=O)[C@@H](N)Cc2ccc(O)cc2)[C@@H](C)O)[C@@H](C)CC)CCCC1)[C@@H](C)CC)C(=O)N[C@@H](Cc1c[nH]cn1)C(=O)N[C@@H](CCC(N)=O)C(=O)N[C@@H](CCC(N)=O)C(=O)N[C@@H](CC(=O)O)C(=O)N[C@@H](Cc1ccccc1)C(=O)N[C@H](C(=O)N[C@@H](CC(N)=O)C(=O)N[C@@H](Cc1c[nH]c2ccccc12)C(=O)N[C@@H](CC(C)C)C(=O)N[C@@H](CC(C)C)C(=O)N[C@@H](C)C(=O)N[C@@H](CCC(N)=O)C(=O)N[C@@H](CCCCN)C(N)=O)C(C)C` [Example 46, (Aib^2, A5c^11)hGIP(1-30)-NH2] (H-Y[Aib]EGTFISDY[Ac5c]IAMDKIHQQDFVNWLLAQK-NH2; N-terminus assumed), for which, in data set [1], the Ki worked out at 0.09 nM. The figures for the half-life at 0.1 mg/ml in data set [2] and in data set [3] were 12.2 h and greater than 54 h, respectively.

The term Ki denotes a measure of affinity in units of concentration, obtained from inhibition or displacement.

(Values after patent US9074014B2 (Ipsen Pharma S.A.S., priority 2008, dated 2015).)
